Source: patent US7947726B2, “Non-steroidal ligands for the glucocorticoid receptor, and compositions thereof” (The Regents of the University of California, priority 2002, dated 2011)

Biological target: T1, PR (Homo sapiens, UniProt P06401)
T1 sequence (P06401 1-933): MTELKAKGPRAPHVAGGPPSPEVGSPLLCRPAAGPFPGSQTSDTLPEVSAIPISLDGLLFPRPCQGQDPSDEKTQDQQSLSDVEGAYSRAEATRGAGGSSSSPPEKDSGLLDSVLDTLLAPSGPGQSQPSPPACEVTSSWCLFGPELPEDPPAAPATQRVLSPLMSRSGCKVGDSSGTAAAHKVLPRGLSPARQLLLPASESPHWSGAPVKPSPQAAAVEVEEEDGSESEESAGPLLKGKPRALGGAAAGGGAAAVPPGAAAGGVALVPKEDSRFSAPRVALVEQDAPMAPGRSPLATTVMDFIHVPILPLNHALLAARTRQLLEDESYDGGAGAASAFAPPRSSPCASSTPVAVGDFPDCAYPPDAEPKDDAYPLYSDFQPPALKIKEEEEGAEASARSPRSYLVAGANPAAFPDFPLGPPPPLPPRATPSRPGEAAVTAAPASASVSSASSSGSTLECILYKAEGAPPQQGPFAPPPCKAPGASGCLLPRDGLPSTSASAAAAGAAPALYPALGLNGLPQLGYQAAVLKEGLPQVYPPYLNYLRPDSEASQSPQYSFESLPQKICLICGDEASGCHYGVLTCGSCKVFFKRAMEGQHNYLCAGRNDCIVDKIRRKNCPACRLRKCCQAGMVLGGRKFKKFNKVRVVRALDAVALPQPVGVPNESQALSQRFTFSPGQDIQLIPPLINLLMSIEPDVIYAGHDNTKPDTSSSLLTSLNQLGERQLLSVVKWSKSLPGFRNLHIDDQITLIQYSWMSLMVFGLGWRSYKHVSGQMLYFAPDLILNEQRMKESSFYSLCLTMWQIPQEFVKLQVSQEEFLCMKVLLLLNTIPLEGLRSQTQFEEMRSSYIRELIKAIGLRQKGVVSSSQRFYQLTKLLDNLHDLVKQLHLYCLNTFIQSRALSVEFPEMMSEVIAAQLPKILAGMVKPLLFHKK
Assay: PR activation (max fold activation)
Type: cell-based
Settings: Table 4

`CC(=O)[C@H]1CC[C@H]2[C@@H]3CCC4=CC(=O)CC[C@]4(C)[C@H]3CC[C@]12C` [Progesterone, reference compound] was tested, and the “PR max fold activation” value was 255 ± 72.
